The values that follow come from patent publication US20150299188A1, “HETEROCYCLIC COMPOUND” (priority 2012, published 2015).

This assay deals with FLAP (5-lipoxygenase activating protein). The experiment in a line: In vitro binding test: displacement of [3H]-7-chloro-3-(5-((3-fluoropyridin-2-yl)methoxy)-2-methylphenyl)-3,4-dihydroquinazolin-2(1H)-one from Sf9 microsome fractions. On the set-up: species or system human and mouse. The settings on record: Sf9 microsome fractions expressing FLAP; 100% = radioligand binding with 10 μM sodium 3-(3-(tert-butylsulfanyl)-1-(4-chlorobenzyl)-5-isopropyl-1H-indol-2-yl)-2,2-dimethylpropanoate, 0% = DMSO; test compound concentration not given. In short, it runs like this:
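Sf9 microsomes expressing human or mouse FLAP (2 μg/mL) preincubated with compound 10 min at room temperature, then 120 nM tritiated quinazolinone ligand added for 60 min; buffer 100 mM Tris-HCl pH 7.5 with NaCl, EDTA, DTT, glycerol, Tween20. Bound ligand filtered and counted by scintillation; 10 μM indole propanoate defines 100% inhibition, DMSO 0%.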
Background: In a radioligand displacement assay an active substance lowers the binding of a labelled ligand.
On to `Cc1ccc(OCc2c(F)cccc2F)cc1N1Cc2cnccc2NC1=O` [Example 235, 3-(5-((2,6-difluorobenzyl)oxy)-2-methylphenyl)-3,4-dihydropyrido[4,3-d]pyrimidin-2(1H)-one], for which the “inhibitory rate (%)” value is listed as 79%.
Turning to `Cc1cc2c(cc1N1Cc3c(ccnc3C(F)(F)F)NC1=O)OC(c1ncccc1F)CC2` (stereo not drawn) [Example 4, 3-(2-(3-fluoropyridin-2-yl)-6-methyl-3,4-dihydro-2H-chromen-7-yl)-5-(trifluoromethyl)-3,4-dihydropyrido[4,3-d]pyrimidin-2(1H)-one], the “inhibitory rate (%)” value came to 103%.
To `Cc1cc2c(cc1N1Cc3c(Cl)ccnc3NC1=O)OC(c1ncccc1F)CC2` (stereo not drawn) [Example 36, 5-chloro-3-(2-(3-fluoropyridin-2-yl)-6-methyl-3,4-dihydro-2H-chromen-7-yl)-3,4-dihydropyrido[2,3-d]pyrimidin-2(1H)-one] belongs 115%; to `O=C1Nc2c(C3=CCOCC3)ncc(Cl)c2CN1c1cc2c(cc1Cl)CCC(c1ncccc1F)O2` (stereo not drawn) [Example 127, 5-chloro-3-(6-chloro-2-(3-fluoropyridin-2-yl)-3,4-dihydro-2H-chromen-7-yl)-8-(3,6-dihydro-2H-pyran-4-yl)-3,4-dihydropyrido[3,4-d]pyrimidin-2(1H)-one], 98%; to `Cc1cc2c(cc1N1Cc3ccc(CO)cc3NC1=O)OC(c1ncccc1F)CC2` (stereo not drawn) [Example 185, 3-(2-(3-fluoropyridin-2-yl)-6-methyl-3,4-dihydro-2H-chromen-7-yl)-7-(hydroxymethyl)-3,4-dihydroquinazolin-2(1H)-one], 98%.
As for `Cc1cc2c(cc1N1Cc3cc(Cl)cnc3NC1=O)OC(c1ncccc1F)CC2` (stereo not drawn) [Example 48, 6-chloro-3-(2-(3-fluoropyridin-2-yl)-6-methyl-3,4-dihydro-2H-chromen-7-yl)-3,4-dihydropyrido[2,3-d]pyrimidin-2(1H)-one], the “inhibitory rate (%)” value was found to be 105%.
`Cc1cc2c(cc1N1Cc3c(Cl)cnc(-c4ccnn4C)c3NC1=O)OC(c1ncccc1F)CC2` (stereo not drawn) [Example 160, 5-chloro-3-(2-(3-fluoropyridin-2-yl)-6-methyl-3,4-dihydro-2H-chromen-7-yl)-8-(1-methyl-1H-pyrazol-5-yl)-3,4-dihydropyrido[3,4-d]pyrimidin-2(1H)-one]: the “inhibitory rate (%)” value is reported as 93%.
In the case of `Cc1ccc(OCc2c(F)cccc2F)cc1N1Cc2cccc(C(C)(C)O)c2NC1=O` [Example 217, 3-(5-((2,6-difluorobenzyl)oxy)-2-methylphenyl)-8-(2-hydroxypropan-2-yl)-3,4-dihydroquinazolin-2(1H)-one] it was 87%; in that of `CCOC(=O)c1nccc2c1CN(c1cc3c(cc1C)CCC(c1ncccc1F)O3)C(=O)N2` (stereo not drawn) [Example 30, ethyl 3-(2-(3-fluoropyridin-2-yl)-6-methyl-3,4-dihydro-2H-chromen-7-yl)-2-oxo-1,2,3,4-tetrahydropyrido[4,3-d]pyrimidine-5-carboxylate], 105%; in that of `Cc1ccc(OCc2ncccn2)cc1N1Cc2c(Cl)cccc2NC1=O` [Example 274, 5-chloro-3-(2-methyl-5-(pyrimidin-2-ylmethoxy)phenyl)-3,4-dihydroquinazolin-2(1H)-one], 106%.
As for `Cc1ccc(OCc2ncccc2F)cc1N1Cc2c(Cl)cccc2N(CC2CC2)C1=O` [Example 284, 5-chloro-1-(cyclopropylmethyl)-3-(5-((3-fluoropyridin-2-yl)methoxy)-2-methylphenyl)-3,4-dihydroquinazolin-2(1H)-one], the “inhibitory rate (%)” value amounted to 105%.
Consider `Cc1ccc(OCc2ncccc2F)cc1N1Cc2c(ccnc2C#N)NC1=O` [Example 321, 3-(5-((3-fluoropyridin-2-yl)methoxy)-2-methylphenyl)-2-oxo-1,2,3,4-tetrahydropyrido[4,3-d]pyrimidine-5-carbonitrile], for which the “inhibitory rate (%)” value is given as 90%.
On to `CC(C)(C)Cc1ccc(OCc2c(F)cccc2F)cc1N1Cc2ccc(CO)cc2NC1=O` [Example 294, 3-(5-((2,6-difluorobenzyl)oxy)-2-(2,2-dimethylpropyl)phenyl)-7-(hydroxymethyl)-3,4-dihydroquinazolin-2(1H)-one], for which the “inhibitory rate (%)” value is 65%.
Take `Cc1ccc(OCc2ncccc2F)cc1N1Cc2c(cccc2C(F)(F)F)NC1=O` [Example 297, 3-(5-((3-fluoropyridin-2-yl)methoxy)-2-methylphenyl)-5-(trifluoromethyl)-3,4-dihydroquinazolin-2(1H)-one]: the “inhibitory rate (%)” value was found to be 106%.
As to `COC(=O)c1ccc2c(c1)NC(=O)N(c1cc(OCc3nccs3)ccc1C)C2` [Example 237, methyl 3-(2-methyl-5-(1,3-thiazol-2-ylmethoxy)phenyl)-2-oxo-1,2,3,4-tetrahydroquinazoline-7-carboxylate], the “inhibitory rate (%)” value is recorded as 100%.
With `Cc1cc2c(cc1N1Cc3c(ccnc3C(F)F)NC1=O)OC(c1ncccc1F)CC2` (stereo not drawn) [Example 24, 5-(difluoromethyl)-3-(2-(3-fluoropyridin-2-yl)-6-methyl-3,4-dihydro-2H-chromen-7-yl)-3,4-dihydropyrido[4,3-d]pyrimidin-2 (1H)-one], the “inhibitory rate (%)” value was 96%.
Regarding `COCCOc1cccc2[nH]c(=O)n(-c3cc(OCc4ncccc4F)ccc3C)c(=O)c12` [Example 366, 3-(5-((3-fluoropyridin-2-yl)methoxy)-2-methylphenyl)-5-(2-methoxyethoxy)quinazoline-2,4(1H,3H)-dione], the “inhibitory rate (%)” value was found to be 95%.
As for `Cc1ccc(OCc2c(F)cccc2F)cc1N1Cc2ccc(C(N)=O)cc2NC1=O` [Example 196, 3-(5-((2,6-difluorobenzyl)oxy)-2-methylphenyl)-2-oxo-1,2,3,4-tetrahydroquinazoline-7-carboxamide], the “inhibitory rate (%)” value amounted to 97%.
With `Cc1ccc(OCc2ncccc2F)cc1N1Cc2c(Cl)cccc2N(CC(N)=O)C1=O` [Example 286, 2-(5-chloro-3-(5-((3-fluoropyridin-2-yl)methoxy)-2-methylphenyl)-2-oxo-3,4-dihydroquinazolin-1(2H)-yl)acetamide], the “inhibitory rate (%)” value was 112%.
For the compound `Cc1ccc(OCc2c(F)cccc2F)cc1-n1c(=O)[nH]c2nc(N3CCOCC3)sc2c1=O` [Example 334, 6-(5-((2,6-difluorobenzyl)oxy)-2-methylphenyl)-2-(morpholin-4-yl)[1,3]thiazolo[4,5-d]pyrimidine-5,7(4H,6H)-dione], the “inhibitory rate (%)” value was 93%.
To `COc1cc2c(c(C3CC3)n1)CN(c1cc3c(cc1C)CCC(c1ncccc1F)O3)C(=O)N2` (stereo not drawn) [Example 122, 5-cyclopropyl-3-(2-(3-fluoropyridin-2-yl)-6-methyl-3,4-dihydro-2H-chromen-7-yl)-7-methoxy-3,4-dihydropyrido[4,3-d]pyrimidin-2(1H)-one] belongs 106%; to `O=C1Nc2ccnc(C(F)(F)F)c2CN1c1cc2c(cc1F)CCC(c1ncccc1F)O2` (stereo not drawn) [Example 68, 3-(6-fluoro-2-(3-fluoropyridin-2-yl)-3,4-dihydro-2H-chromen-7-yl)-5-(trifluoromethyl)-3,4-dihydropyrido[4,3-d]pyrimidin-2(1H)-one], 113%; to `COc1cccnc1C1CCc2cc(Cl)c(N3Cc4c(ccnc4C4CC4)NC3=O)cc2O1` (stereo not drawn) [Example 64, 3-(6-chloro-2-(3-methoxypyridin-2-yl)-3,4-dihydro-2H-chromen-7-yl)-5-cyclopropyl-3,4-dihydropyrido[4,3-d]pyrimidin-2(1H)-one], 94%.
In the case of `O=C(O)c1cc2c(c(C3CC3)n1)CN(c1cc3c(cc1Cl)CCC(c1ncccc1F)O3)C(=O)N2` (stereo not drawn) [Example 71, 3-(6-chloro-2-(3-fluoropyridin-2-yl)-3,4-dihydro-2H-chromen-7-yl)-5-cyclopropyl-2-oxo-1,2,3,4-tetrahydropyrido[4,3-d]pyrimidine-7-carboxylic acid], the “inhibitory rate (%)” value is on record as 107%.
Turning to `N#Cc1ccc(OCc2ncccc2F)cc1N1Cc2ccccc2NC1=O` [Example 224, 4-((3-fluoropyridin-2-yl)methoxy)-2-(2-oxo-1,4-dihydroquinazolin-3(2H)-yl)benzonitrile], the “inhibitory rate (%)” value worked out at 87%.
To `Cc1cc2c(cc1N1Cc3c(C4CC4)cnc(-c4cnn(C)c4)c3NC1=O)OC(c1ncccc1F)CC2` (stereo not drawn) [Example 162, 5-cyclopropyl-3-(2-(3-fluoropyridin-2-yl)-6-methyl-3,4-dihydro-2H-chromen-7-yl)-8-(1-methyl-1H-pyrazol-4-yl)-3,4-dihydropyrido[3,4-d]pyrimidin-2(1H)-one] belongs 95%.
As to `Cc1ccc(OCc2ncccc2F)cc1N1Cc2c(Cl)cccc2N(Cc2ccccc2C(=O)O)C1=O` [Example 296, 2-((5-chloro-3-(5-((3-fluoropyridin-2-yl)methoxy)-2-methylphenyl)-2-oxo-3,4-dihydroquinazolin-1(2H)-yl)methyl)benzoic acid], the “inhibitory rate (%)” value is 95%.
For the compound `Cc1ccc(OCc2c(F)cccc2F)cc1N1Cc2ncccc2NC1=O` [Example 223, 3-(5-((2,6-difluorobenzyl)oxy)-2-methylphenyl)-3,4-dihydropyrido[3,2-d]pyrimidin-2(1H)-one], the “inhibitory rate (%)” value was found to be 95%.
Turning to `CCc1ccc(OCc2c(F)cccc2F)cc1N1Cc2ccc(C(C)(C)O)cc2NC1=O` [Example 178, 3-(5-((2,6-difluorobenzyl)oxy)-2-ethylphenyl)-7-(2-hydroxypropan-2-yl)-3,4-dihydroquinazolin-2(1H)-one], the “inhibitory rate (%)” value amounted to 109%.
As to `Cc1cc2c(cc1N1Cc3c(cc(OCC(F)F)nc3C3CC3)NC1=O)OC(c1ncccc1F)CC2` (stereo not drawn) [Example 159, 5-cyclopropyl-7-(2,2-difluoroethoxy)-3-(2-(3-fluoropyridin-2-yl)-6-methyl-3,4-dihydro-2H-chromen-7-yl)-3,4-dihydropyrido[4,3-d]pyrimidin-2(1H)-one], the “inhibitory rate (%)” value came to 97%.
